Experimental findings from PubChem BioAssay AID1259407 (Chemical Carcinogenesis Research Information System (CCRIS), 2018) are described below.

The source made the active and inactive calls. No rule for the calls is given here.

In this data set the test system is CCRIS mutagenicity, Ames/micronucleus/aberration tests. In words: CCRIS mutagenicity studies.
[1] abbreviates: Test System: AMES SALMONELLA TYPHIMURIUM, Strain/Indicator: TA98, Metabolic Activation: NONE, Method: PREINCUBATION
[2] abbreviates: Test System: AMES SALMONELLA TYPHIMURIUM, Strain/Indicator: TA100, Metabolic Activation: HAMSTER, LIVER, S-9, AROCLOR 1254 (30%), Method: PREINCUBATION
Where [3] appears, read: Test System: AMES SALMONELLA TYPHIMURIUM, Strain/Indicator: TA100, Metabolic Activation: NONE, Method: PREINCUBATION
Where [4] appears, read: Test System: AMES SALMONELLA TYPHIMURIUM, Strain/Indicator: TA98(1,8-DNP6), Metabolic Activation: NONE, Method: PREINCUBATION
Where [5] appears, read: Test System: AMES SALMONELLA TYPHIMURIUM, Strain/Indicator: TA98, Metabolic Activation: NONE, Method: STANDARD PLATE.
Where [6] appears, read: Test System: AMES SALMONELLA TYPHIMURIUM, Strain/Indicator: TA98, Metabolic Activation: S-9, Method: STANDARD PLATE.
Where [7] appears, read: Test System: AMES SALMONELLA TYPHIMURIUM, Strain/Indicator: TA100, Metabolic Activation: NONE, Method: STANDARD PLATE.
[8] abbreviates: Test System: AMES SALMONELLA TYPHIMURIUM, Strain/Indicator: TA100, Metabolic Activation: S-9, Method: STANDARD PLATE.

As to `C=C(C)C#N`, the mutagenic call by setting is: (Test System: AMES SALMONELLA TYPHIMURIUM, Strain/Indicator: TA97, Metabolic Activation: HAMSTER, LIVER, S-9, AROCLOR 1254 (10%), Method: PREINCUBATION) “inactive; negative”; (Test System: AMES SALMONELLA TYPHIMURIUM, Strain/Indicator: TA97, Metabolic Activation: HAMSTER, LIVER, S-9, AROCLOR 1254 (30%), Method: PREINCUBATION) “inactive; negative”; (Test System: AMES SALMONELLA TYPHIMURIUM, Strain/Indicator: TA97, Metabolic Activation: NONE, Method: PREINCUBATION) “inactive; negative”; (Test System: AMES SALMONELLA TYPHIMURIUM, Strain/Indicator: TA97, Metabolic Activation: RAT, LIVER, S-9, AROCLOR 1254 (10 OR 30%), Method: PREINCUBATION) “inactive; negative”; (Test System: AMES SALMONELLA TYPHIMURIUM, Strain/Indicator: TA98, Metabolic Activation: HAMSTER, LIVER, S-9, AROCLOR 1254 (10%), Method: PREINCUBATION) “inactive; negative”; (Test System: AMES SALMONELLA TYPHIMURIUM, Strain/Indicator: TA98, Metabolic Activation: HAMSTER, LIVER, S-9, AROCLOR 1254 (30%), Method: PREINCUBATION) “inactive; negative”. The mutagenic call is, setting by setting: under setting [1], “inactive; negative”; (Test System: AMES SALMONELLA TYPHIMURIUM, Strain/Indicator: TA98, Metabolic Activation: RAT, LIVER, S-9, AROCLOR 1254 (10%), Method: PREINCUBATION) “inactive; negative”; (Test System: AMES SALMONELLA TYPHIMURIUM, Strain/Indicator: TA100, Metabolic Activation: HAMSTER, LIVER, S-9, AROCLOR 1254 (10%), Method: PREINCUBATION) “inactive; negative”; under setting [2], “inactive; negative”; under setting [3], “inactive; negative”; (Test System: AMES SALMONELLA TYPHIMURIUM, Strain/Indicator: TA100, Metabolic Activation: RAT, LIVER, S-9, AROCLOR 1254 (10 OR 30%), Method: PREINCUBATION) “inactive; negative”. In addition, the mutagenic call (Test System: AMES SALMONELLA TYPHIMURIUM, Strain/Indicator: TA1535, Metabolic Activation: HAMSTER, LIVER, S-9, AROCLOR 1254 (10%), Method: PREINCUBATION) was “inactive; negative”; the mutagenic call (Test System: AMES SALMONELLA TYPHIMURIUM, Strain/Indicator: TA1535, Metabolic Activation: HAMSTER, LIVER, S-9, AROCLOR 1254 (30%), Method: PREINCUBATION) was “inactive; negative”; the mutagenic call (Test System: AMES SALMONELLA TYPHIMURIUM, Strain/Indicator: TA1535, Metabolic Activation: NONE, Method: PREINCUBATION) is “inactive; negative”; the mutagenic call (Test System: AMES SALMONELLA TYPHIMURIUM, Strain/Indicator: TA1535, Metabolic Activation: RAT, LIVER, S-9, AROCLOR 1254 (10 OR 30%), Method: PREINCUBATION) was “inactive; negative”; the mutagenic call (Test System: AMES SALMONELLA TYPHIMURIUM, Strain/Indicator: TA1537, Metabolic Activation: HAMSTER, LIVER, S-9, AROCLOR 1254 (10%), Method: PREINCUBATION) is “inactive; negative”; the mutagenic call (Test System: AMES SALMONELLA TYPHIMURIUM, Strain/Indicator: TA1537, Metabolic Activation: HAMSTER, LIVER, S-9, AROCLOR 1254 (30%), Method: PREINCUBATION) is “inactive; negative”. In addition, the mutagenic call by setting is: (Test System: AMES SALMONELLA TYPHIMURIUM, Strain/Indicator: TA1537, Metabolic Activation: NONE, Method: PREINCUBATION) “inactive; negative”; (Test System: AMES SALMONELLA TYPHIMURIUM, Strain/Indicator: TA1537, Metabolic Activation: RAT, LIVER, S-9, AROCLOR 1254 (10 OR 30%), Method: PREINCUBATION) “inactive; negative”; (Test System: UDS HUMAN HEPATOMA HEPG2 CELLS, Strain/Indicator: THY INCORP, Metabolic Activation: NONE, Method: LIQUID SCINTILLATION COUNTING) “active; positive”.
On to `O=[N+]([O-])c1ccc2c(c1)sc1ccccc12`, for which the mutagenic call runs as follows: under setting [4], “active; positive”; (Test System: AMES SALMONELLA TYPHIMURIUM, Strain/Indicator: TA98(NR), Metabolic Activation: NONE, Method: PREINCUBATION) “active; positive”; (Test System: AMES SALMONELLA TYPHIMURIUM, Strain/Indicator: TA98(NR), Metabolic Activation: RAT LIVER S-9, 3-METHYLCHOLANTHRENE (10%), Method: PREINCUBATION) “active; positive”; under setting [1], “active; positive”.
Regarding `CCCCc1ccc(N=Cc2ccc(OC)cc2)cc1`, the mutagenic call was “inactive; negative” under setting [1]; “active; positive” under setting [2]; “inactive; negative” under setting [3]; “inactive; negative” (Test System: AMES SALMONELLA TYPHIMURIUM, Strain/Indicator: TA100, Metabolic Activation: RAT, LIVER, S-9, AROCLOR 1254 (30%), Method: PREINCUBATION).
Turning to `C[C@]12CC[C@@H]3c4ccc(O)cc4CC[C@H]3[C@@H]1CCC2=O`, the mutagenic call runs as follows: (End Point: IN VITRO CHROMOSOMAL ABERRATIONS, Test System: CHO CELLS, Metabolic Activation: NONE) “active; positive”; (End Point: IN VITRO MICRONUCLEUS, Test System: MCF-7 (HUMAN MAMMARY CARCINOMA), Metabolic Activation: NONE) “active; positive”; (Test System: UDS RAT HEPATOCYTES, Strain/Indicator: THY INCORP (18-20 HR), Metabolic Activation: NONE, Method: LIQUID SCINTILLATION COUNTING) “inactive; negative”.
For the compound `Nc1ccc(-c2ccc(N)c(F)c2)cc1F`, the mutagenic call by setting is: (Test System: AMES SALMONELLA TYPHIMURIUM, Strain/Indicator: TA98(1,8-DNP6), Metabolic Activation: HAMSTER, LIVER, S-9, Method: PREINCUBATION) “active; positive”; under setting [4], “active; positive”; (Test System: AMES SALMONELLA TYPHIMURIUM, Strain/Indicator: TA98(1,8-DNP6), Metabolic Activation: NONE, Method: STANDARD PLATE) “active; positive”; (Test System: AMES SALMONELLA TYPHIMURIUM, Strain/Indicator: TA98(1,8-DNP6), Metabolic Activation: S-9, Method: STANDARD PLATE) “active; positive”; (Test System: AMES SALMONELLA TYPHIMURIUM, Strain/Indicator: TA98, Metabolic Activation: HAMSTER, LIVER, S-9, Method: PREINCUBATION) “active; positive”; under setting [1], “active; positive”. The mutagenic call runs as follows: under setting [5], “active; positive”; under setting [6], “active; positive”; under setting [7], “inactive; negative”; under setting [8], “active; positive”.
`CCCCOc1cc(C)ccc1C(=O)NOC(C)=O`: the mutagenic call is, setting by setting: under setting [7], “active; positive”; (Test System: AMES SALMONELLA TYPHIMURIUM, Strain/Indicator: TA100, Metabolic Activation: RAT, S-9, AROCLOR, Method: STANDARD PLATE) “active; positive”.
As for `C[C@H]1CC[C@@H]2[C@@H](C)[C@H]3C(C[C@H]4[C@@H]5CC=C6C[C@@H](O[C@@H]7O[C@H](CO)[C@H](O)[C@H](O[C@@H]8O[C@H](CO)[C@@H](O)[C@H](O)[C@H]8O)[C@H]7O[C@@H]7O[C@@H](C)[C@H](O)[C@@H](O)[C@H]7O)CC[C@]6(C)C5CC[C@]34C)N2C1` (stereo partly drawn), the mutagenic call runs as follows: under setting [5], “inactive; negative”; under setting [6], “inactive; negative”; under setting [7], “inactive; negative”; under setting [8], “inactive; negative”.
